# Results: PubChem BioAssay AID464 (The Scripps Research Institute Molecular Screening Center, 2006)
# Activity calls are given as the source filed them.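 The calls were made as follows: active = Compounds that kill half the cells at a concentration of 5 micromolar or below, from the fitted or estimated CC50; inactive = CC50 above 5 micromolar.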
# Tested on: Jurkat E6.1 viability, ATP luminescence, 48 h
# Assay: viability loss in Jurkat T cells – cell-based, ATP luminescence, 48 h, 60K MLSMR, cytotoxicity control, dose response (AID 464)
row,SMILES,CC50
1,O=C(Cc1ccc(-n2cccc2)cc1)NCc1cccs1,0.513 µM
2,CCOC(=O)/C=C/S(=O)(=O)c1ccc(NC(C)=O)cc1,3.21 µM
3,COCCOC(=O)c1[nH]c2c(c1C)C(=O)CC(c1cc(OC)ccc1OC)C2 (stereo not given),4.2 µM
4,COc1cccc(Cn2c(-c3nonc3N)nc3ccccc32)c1,1.06 µM
5,C(=C\c1ccccc1)/CSc1nnc(-c2ccccn2)n1Cc1ccco1,2.28 µM
6,O=C(Cn1cnc2c(cnn2-c2ccc(F)cc2)c1=O)NCc1ccco1,> 4.4 µM (inactive)
7,COc1cc(NS(=O)(=O)c2ccc(OC)c(C)c2C)c(OC)cc1Cl,1.62 µM
8,O=C(Cc1n[nH]c(=O)c2ccccc12)OCC(=O)c1ccc2c(c1)OCCO2,3.4 µM
9,CCOC(=O)c1[nH]c2c(c1C)C(=O)CC(c1ccc(F)cc1)C2 (stereo not given),0.708 µM
10,O=C(Nc1nnc(-c2cccs2)o1)c1cccc(C(F)(F)F)c1,25.7 µM (inactive)
11,CC(=O)NC(c1ccco1)c1ccc2cccnc2c1O (stereo not given),3.65 µM
12,OCCN1CCN(C(c2cccs2)c2ccc3cccnc3c2O)CC1 (stereo not given),13.5 µM (inactive)
13,C/C(N)=C(/C#N)C(=O)CSc1nnnn1-c1ccc(C)cc1C,> 40 µM (inactive)
14,O=C(Nc1ccc2c(c1)CCC2)C1CCN(c2c3c(nc4ncnn24)CCC3)CC1,4.5 µM
15,CCOC(=O)Nc1cc(=O)c2ccccc2o1,> 4.4 µM (inactive)
16,O=S(=O)(C/C(=C/CO)S(=O)(=O)c1ccccc1)c1ccccc1,2.2 µM
17,Cc1cccc(-n2ncc3c(NCc4ccccc4)ncnc32)c1,3.86 µM
18,Cc1cc(C(=O)CSc2nnc(-c3cccc(F)c3)n2N)c(C)n1Cc1ccc2c(c1)OCO2,9.37 µM (inactive)
19,O=C(Nc1ccc(Cl)cn1)c1cccc(F)c1,> 4.4 µM (inactive)
20,CCOC(=O)c1ccc(Oc2cc(C)nc(SC)n2)cc1,7.92 µM (inactive)
21,CCn1ncc(C2=NOC(C(=O)NCc3ccc(OC)cc3)C2)c1C (stereo not given),11.8 µM (inactive)
22,CC1CC(C)CN(S(=O)(=O)c2ccc(C(=O)NCCCn3ccnc3)cc2)C1 (stereo not given),1.08 µM
23,COc1ccc(OC)c(C(C)NC(=O)c2ccco2)c1 (stereo not given),6.24 µM (inactive)
24,O=C(c1ccc2c(c1)ncn2C1CCCCC1)N1CCC2(CC1)OCCO2,5.19 µM (inactive)
25,COC(=O)c1ccc(C)c(NS(=O)(=O)c2ccc3c(c2)OCCO3)c1,0.504 µM
26,Clc1ccc(-n2nnnc2Sc2ncnc3sccc23)cc1,> 13 µM (inactive)
27,CCCn1nc(C(=O)N2CC(=O)Nc3ccccc32)c2ccccc2c1=O,2.81 µM
28,COc1cccc(C2=CC(c3cccc(OC)c3OC)n3nnnc3N2)c1 (stereo not given),16.5 µM (inactive)

row,SMILES,CC50
1,CCOc1ccc(C2=Nn3c(nnc3-c3ccc(OC)cc3)SC2)cc1,0.841 µM
2,CC(Oc1ccc(Cl)cc1Cl)C(=O)Nc1ccncc1 (stereo not given),7.07 µM (inactive)
3,Cc1cc2nnc(SCC(=O)NCc3ccco3)n2c2ccccc12,1.9 µM
4,COc1cccc(OCc2nc3ncc(Br)cc3[nH]2)c1,1.11 µM
5,Cc1cc(NO)nc(-c2ccc(Br)cc2)n1,> 40 µM (inactive)
6,CCc1c(C)nc2ncnn2c1NCCc1ccc(OC)cc1,0.901 µM
7,COc1cccc(-c2cc(C(=O)Nc3cc(OC)c(OC)c(OC)c3)no2)c1,8.79 µM (inactive)
8,CCOc1ccccc1CN(Cc1ccco1)S(=O)(=O)c1ccc(-n2cnnn2)c(OC)c1,4.22 µM
9,Cc1cccc(Cn2c(NCC(C)O)nc3c2c(=O)n(C)c(=O)n3C)c1 (stereo not given),8.24 µM (inactive)
10,COc1ccccc1-c1nnc(Nc2nc3c(OC)cccc3s2)o1,0.664 µM
11,CC1CCCCC1NS(=O)(=O)c1ccc(S(=O)(=O)NCc2ccncc2)cc1 (stereo not given),2.37 µM
12,COc1cc(C(=O)N2CCN(c3ccc(C)cc3C)CC2)cc(OC)c1OC,1.69 µM
13,O=C(CSc1n[nH]c(-c2ccccc2O)n1)N1CCCc2ccccc21,9.5 µM (inactive)
14,COc1ccc(S(=O)(=O)Cc2ccc(C(=O)N3CCN(c4cccc(C)c4)C(C)C3)o2)cc1 (stereo not given),1.6 µM
15,CCN(C(=O)c1ccc(C(C)(C)C)cc1)c1nnc(Cn2nnc3ccccc32)s1,> 40 µM (inactive)
16,Cc1c(C(=O)N2CCOCC2)[nH]c2c1C(=O)CC(c1ccccc1Cl)C2 (stereo not given),1.6 µM
17,C=CCn1c(O)c(C(C)=NCc2cc(OC)cc(OC)c2)c(=O)[nH]c1=O,7.66 µM (inactive)
18,O=C(c1cc2c(s1)-c1ccccc1OC2)N1CCC2(CC1)OCCO2,6.1 µM (inactive)
19,CCOc1ccc(N(CC(=O)Nc2ccccc2C)S(=O)(=O)c2c(C)noc2C)cc1,1.35 µM
20,Cn1c(=O)oc2cc(S(=O)(=O)N3CCCc4ccccc43)ccc21,0.173 µM
21,Cc1cc(NC(=O)COc2cccc(Oc3ccccc3)c2)no1,8.94 µM (inactive)
22,O=S(=O)(CCSc1ccccn1)c1nc2ccccc2s1,11.8 µM (inactive)
23,Cc1cnc(C(=O)Nc2cccc3cccnc23)cn1,0.803 µM
24,COc1ccc(C2NC(=O)NC3=C2CCc2ccccc23)cc1 (stereo not given),4.81 µM
25,Cc1cccc(N2CCN(C(=O)c3ccc(Cl)c(S(=O)(=O)NCc4ccco4)c3)CC2)c1C,9.8 µM (inactive)
26,CCOC(=O)CCS(=O)(=O)c1nc(-c2ccccc2)cc(C(F)(F)F)n1,4.58 µM
27,CCn1nc(-c2cccs2)nc2c(=O)n(C)c(=O)nc1-2,> 40 µM (inactive)
